This passage reports IC50 results from patent US20230303486A1, “CYCLOBUTYL-UREA DERIVATIVES” (Idorsia Pharmaceuticals Ltd, priority 2020, published 2023).

The test system of the experiment is primary neuronal cultures from embryonic rat brains. Briefly: Rat oscillation assay (FLIPR, neuronal calcium oscillations). The class given is cell-based. The protocol:
This assay is a functional phenotypic assay designed to mimic epileptic seizures using primary neuronal cultures from embryonic rat brains, which form a functional neuronal network that generate synchronized intracellular calcium concentration oscillations when cultured at high density in 384-well plate. The epileptic phenotype is induced by incubating the neurons in magnesium-free assay buffer, that results in increased probability of NMDA receptor activation, leading to an increased frequency and amplitude of intracellular calcium oscillations. Once neurons are incubated with the calcium indicator dye Fluo-8 AM (Tebu-bio), neuronal calcium oscillations can be monitored in real time using FLIPR® Tetra (fluorometric plate reader, Molecular Devices). With these recordings, the effect of anti-epileptic drugs can be quantified. The anti-epileptic effect of compounds, which activate directly or indirectly the Kv7 channels can be modulated by the Kv7 channel blocker XE-991. The assay was performed as described previously (Pacico N, Mingorance-Le Meur A. New In Vitro Phenotypic Assay for Epilepsy: Fluorescent Measurement of Synchronized Neuronal Calcium Oscillations. PLoS ONE 9(1) 2014) with modifications described hereafter.
Animal care followed standard procedures in accordance with swiss institutional guidelines. Dissociated neuronal cultures were obtained from cerebral cortices of embryonic Wistar rats at embryonic stage E18 (Charles River). The uterine horns were removed by caesarian surgery from deeply anesthetized rats (Isofurane) and sacrificed by decapitation. The embryos were decapitated by closing forceps. The brains were isolated and dissected one by one in ice-cold PBS (Life Technologies) under optical control using a binocular. Meninges, olfactory bulbs, and basal ganglia were removed. Cortical hemispheres (still including the hippocampus) were cut in small pieces with tweezers and placed on ice in prechilled Hibernate-E medium (Life technology). The hemispheres were then incubated in 10 mL of Hibernate-E containing 15 U/mL papain (Worthington) for 25 min at 30° C. with gentle mixing every 10 min. Genomic DNA was then digested by prolonging the incubation during 10 min at 37° C. in presence of 4 U/mL rDNase I (Ambion). The obtained suspension was then centrifuged at 800 g for 5 min and the cell pellet was resuspended in 2 mL Hibernate-E and gently dissociated by pipetting up and down 10 times with a plastic Pasteur pipette resulting in a homogenous cell suspension. This suspension was immediately filtered through a 70 µm cell strainer (MACS® SmartStrainer, Miltenyi), collected in 10 mL Hibernate-E and centrifuged at 800 g for 5 min. The cell pellet was resuspended in Neurobasal medium, supplemented with 2% B-27, 0.5 mM Glutamax-I, 100 U/mL penicillin, 100 µg/mL streptomycin (Life Technologies) and diluted at the final concentration of 300′000 cells/mL. One day before plating the cells, 384-well plates were coated with 25 µL/well of 0.1 % poly-L-lysine solution (Sigma), incubated overnight at 37° C., washed two times with sterile distilled water and allowed to dry at room temperature for >2 h. The neurons were seeded at a density of 15′000 cells/well in 50 µL/well in a 384-well black, clear-bottomed plates (Corning) and subsequently maintained in an incubator at 37° C., 5% CO2 and 95% humidity for 8 to 10 days. After 3 and 7 days, 40% of media was renewed under sterile conditions.
Neurons seeded in the assay plates were washed with Hank’s balanced salt solution (HBSS) devoid of Ca^2+ and Mg^2+, supplemented with 20 mM HEPES (Life Technologies) and 2 mM CaCl2 (Sigma), pH 7.4 (hereafter called Assay buffer) using a Biotek EL406 plate washer. Neurons were loaded with 1 µM Fluo-8 AM in Assay buffer for 15 min at 37° C., 5% CO2. […]

The mark [1] stands for this setting: Rattus norvegicus, 20 min, 20 min after compound addition, AUC of fluorescence, read-out: FLIPR: IC50 [nM] 20 min.
[2] abbreviates: Rattus norvegicus, Cortical neurone, acute phase, ratio of AUC fluorescence before and after compound addition, rat cortical neurons, Mg-free buffer, read-out: FLIPR: IC50 [nM] acute.
Where [3] appears, read: 20 min after compound addition, AUC of fluorescence, read-out: FLIPR: IC50 [nM] 20 min.
[4] abbreviates: acute phase, ratio of AUC fluorescence before and after compound addition, rat cortical neurons, Mg-free buffer, read-out: FLIPR: IC50 [nM] acute.

Each structure is given as a SMILES string. Read-outs that look alike come from different tables or passages of the source.

`COCC(NC(=O)NC1CC(C(F)F)C1)c1ccnc(OCC(F)(F)F)c1` (racemic) [Example 31, (±)-1-(3-Difluoromethyl-Cyclobutyl)-3-{2-Methoxy-1-[2-(2,2,2-Trifluoro-Ethoxy)-Pyridin-4-yl]-Ethyl}-Urea]: the IC50 – broadly, the concentration at which inhibition is half-maximal – runs as follows: under setting [1], 763 nM; under setting [2], 190 nM.
The corresponding values for `COCC(NC(=O)NC1CC(C(F)(F)F)C1)c1ccnc(OCC(F)(F)F)c1` (racemic) [Example 32, (±)-1-{2-Methoxy-1-[2-(2,2,2-Trifluoro-Ethoxy)-Pyridin-4-yl]-Ethyl}-3-(3-Trifluoromethyl-Cyclobutyl)-Urea] are 303 nM and 67 nM.
With `CC(NC(=O)NC1CC(C(F)F)C1)c1ccnc(OC(F)F)c1` (racemic) [Example 33, (±)-1-[1-(2-Difluoromethoxy-Pyridin-4-yl)-Ethyl]-3-(3-Difluoromethyl-Cyclobutyl)-Urea], the IC50 runs as follows: under setting [1], 1510 nM; under setting [2], 946 nM.
In the case of `Cc1nc(OCC(F)(F)F)cc(C(C)NC(=O)NC23CC(C(F)(F)F)(C2)C3)n1` (racemic) [Example 34, (±)-1-{1-[2-Methyl-6-(2,2,2-Trifluoro-Ethoxy)-Pyrimidin-4-yl]-Ethyl}-3-(3-Trifluoromethyl-Bicyclo[1.1.1]Pent-1-yl)-Urea], the IC50 reads like this: under setting [1], 291 nM; under setting [2], 247 nM.
Regarding `O=C(NCc1cccc(C(F)(F)F)c1)NC1CC(C(F)(F)F)C1` (single isomer, unassigned) [Example 50, 1-(3-(Trifluoromethyl)Benzyl)-3-(3-(Trifluoromethyl)Cyclobutyl)Urea], the IC50 by setting is: under setting [3], 82 nM; under setting [4], 68 nM.
For `O=C(NCc1cccc(C(F)(F)F)c1)NC1CC(C(F)(F)F)C1` (single isomer, unassigned) [Example 51, 1-(3-(Trifluoromethyl)Benzyl)-3-(3-(Trifluoromethyl)Cyclobutyl)Urea] the same measures were 515 nM and 363 nM.
For the compound `O=C(NCc1cccc(C(F)(F)F)c1)NC1CC(C(F)F)C1` (single isomer, unassigned) [Example 52, 1-(3-(Difluoromethyl)Cyclobutyl)-3-(3-(Trifluoromethyl)Benzyl)Urea], the IC50 runs as follows: under setting [3], 738 nM; under setting [4], 660 nM.
Regarding `Cc1nc(OCC(F)(F)F)cc([C@H](C)NC(=O)NC23CC(C(F)(F)F)(C2)C3)n1` (single isomer, unassigned) [Example 54], the IC50 by setting is: under setting [1], 216 nM; under setting [2], 218 nM.
Take `O=C(NCc1ccnc(OCC(F)(F)F)c1)NC1CC(C(F)F)C1` (single isomer, unassigned) [Example 55, 1-(3-(Difluoromethyl)Cyclobutyl)-3-((2-(2,2,2-Trifluoroethoxy)Pyridin-4-yl)Methyl)Urea]: the IC50 is 1160 nM under setting [3] and 701 nM under setting [4].
For `O=C(NCc1ccnc(OCC(F)(F)F)c1)NC1CC(C(F)F)C1` (single isomer, unassigned) [Example 56, 1-(3-(Difluoromethyl)Cyclobutyl)-3-((2-(2,2,2-Trifluoroethoxy)Pyridin-4-yl)Methyl)Urea] the same measures were 547 nM and 123 nM.
For `C[C@H](NC(=O)NC1CC(C(F)F)C1)c1cccc(OC(F)(F)F)c1` (single isomer, unassigned) [Example 57] the same measures were 314 nM and 146 nM.
As to `C[C@H](NC(=O)NC1CC(C(F)F)C1)c1cccc(OC(F)(F)F)c1` (single isomer, unassigned) [Example 58], the IC50 by setting is: under setting [3], 105 nM; under setting [4], 51 nM.
As to `O=C(NCc1cccc(C(F)(F)F)c1)NC1CC(F)(F)C1` [Example 1, 1-(3,3-Difluoro-Cyclobutyl)-3-(3-Trifluoromethyl-Benzyl)-Urea], the IC50 reads like this: under setting [1], 855 nM; under setting [2], 486 nM.
The corresponding values for `CC(NC(=O)NC12CC(C1)C2)c1cccc(C(F)(F)F)c1` (centres unmarked) [Example 2, 1-Bicyclo[1.1.1]Pent-1-yl-3-[1-(3-Trifluoromethyl-Phenyl)-Ethyl]-Urea] are 466 nM and 291 nM.
The corresponding values for `CC(NC(=O)NC1CC(C(F)F)C1)c1cccc(C(F)(F)F)c1` (centres unmarked) [Example 3, 1-(3-Difluoromethyl-cyclobutyl)-3-[1-(3-trifluoromethylphenyl)-ethyl]-urea] are 334 nM and 188 nM.
The corresponding values for `CC(NC(=O)NC12CC(F)(C1)C2)c1cccc(C(F)(F)F)c1` (centres unmarked) [Example 4, 1-(3-Fluoro-bicyclo[1.1.1]pent-1-yl)-3-[1-(3-trifluoromethylphenyl)-ethyl]-urea] are 1060 nM and 138 nM.
As to `CC(NC(=O)NC12CC(C(F)F)(C1)C2)c1cccc(C(F)(F)F)c1` (centres unmarked) [Example 5, 1-(3-Difluoromethyl-bicyclo[1.1.1]pent-1-yl)-3-[1-(3-trifluoromethyl-phenyl)-ethyl]-urea], the IC50 under setting [1] worked out at 216 nM and the IC50 under setting [2] amounted to 296 nM.
For `CC(NC(=O)NC12CC(C1)C2)c1cccc(OC(F)(F)F)c1` (centres unmarked) [Example 6, 1-Bicyclo[1.1.1]Pent-1-yl-3-[1-(3-Trifluoromethoxy-Phenyl)-Ethyl]-Urea] the same measures were 271 nM and 126 nM.
For `CC(NC(=O)NC1CC(C(F)F)C1)c1cccc(OC(F)(F)F)c1` (centres unmarked) [Example 7, 1-(3-Difluoromethyl-cyclobutyl)-3-[1-(3-trifluoromethoxyphenyl)-ethyl]-urea] the same measures were 100 nM and 63 nM.
The corresponding values for `CC(NC(=O)NC12CC(F)(C1)C2)c1cccc(OC(F)(F)F)c1` (centres unmarked) [Example 8, 1-(3-Fluoro-bicyclo[1.1.1]pent-1-yl)-3-[1-(3-trifluoromethoxyphenyl)-ethyl]-urea] are 331 nM and 168 nM.
Turning to `O=C(NC1CC(O)(C(F)(F)F)C1)NC(c1cccc(C(F)(F)F)c1)C(F)F` (centres unmarked) [Example 9, 1-[2,2-Difluoro-1-(3-Trifluoromethyl-Phenyl)-Ethyl]-3-(3-Hydroxy-3-Trifluoromethyl-Cyclobutyl)-Urea], the half-inhibitory concentration (IC50) by setting is: under setting [1], 1420 nM; under setting [2], 766 nM.
The corresponding values for `CC1(NC(=O)NC(c2cccc(C(F)(F)F)c2)C(F)F)CC(F)(F)C1` (centres unmarked) [Example 10, 1-(3,3-Difluoro-1-Methyl-Cyclobutyl)-3-[2,2-Difluoro-1-(3-TrifluoromethylPhenyl)-Ethyl]-Urea] are 51 nM and 57 nM.
The corresponding values for `CC(NC(=O)NC12CC(C1)C2)c1cccc(OC(F)F)c1` (centres unmarked) [Example 11, 1-Bicyclo[1.1.1]Pent-1-yl-3-[1-(3-Difluoromethoxy-Phenyl)-Ethyl]-Urea] are 1360 nM and 741 nM.
As to `O=C(NC(CO)c1cccc(C(F)(F)F)c1)NC12CC(C(F)F)(C1)C2` (centres unmarked) [Example 12, 1-(3-Difluoromethyl-Bicyclo[1.1.1]Pent-1-yl)-3-[2-Hydroxy-1-(3-Trifluoromethyl-Phenyl)-Ethyl]-Urea], the IC50 under setting [1] was 164 nM and the IC50 under setting [2] is 154 nM.
Consider `O=C(NC(c1cccc(C(F)(F)F)c1)C(F)F)NC12CC(C(F)F)(C1)C2` (centres unmarked) [Example 13, 1-(3-Difluoromethyl-bicyclo[1.1.1]pent-1-yl)-3-[2,2-difluoro-1-(3-trifluoromethyl-phenyl)-ethyl]-urea], for which the half-inhibitory concentration (IC50) came to 41 nM under setting [1] and 14 nM under setting [2].
